# Test results: US20100167261A1, “PLATELET STABILIZATION” (SIEMENS HEALTHCARE DIAGNOSTICS INC., priority 2006, published 2010)
# Where two headings read alike, the source gives them in different places.
# Legend:
# Format in all cases: cell-based
# platelets [1] = assay: mean platelet component (MPC) of stored blood samples, ADVIA 2120 Hematology System; conditions: for mean platelet component (MPC), Average: Table 1, stored at 22° C.
# Method: The ADVIA® 120 Hematology System is an automated analyzer that, in addition to measuring the conventional hematologic indices, also provides some activation-related information about platelets. Macey M G et al., Cytometry 38:250-55 (1999). It measures the intensity of light scattered by platelets at two different cone angles (2-3° and 5-15° and from the paired values computes platelet volume (PV) and platelet component (PC) concentration on a cell-by-cell basis. These values are then averaged to provide the Mean Platelet Component (MPC).
# (§1) The samples were subjected to gently agitation, and were stored either at room temperature (22° C.) or at 4° C., and mean platelet component and mean platelet volume values were obtained at the designated time points using the ADVIA® 2120 system.
# (§2) Blood from healthy controls were also collected into Vacutainer® K3E 4.5 mL K3EDTA sample collection tubes (Cat. No. 367654, Becton, Dickinson and Company, Franklin Lakes, N.J.) and combined with the remaining STABILE-1 reagents (citrate-phosphate-dextrose, wortmanin, tyrphostin) to yield the prescribed concentrations. These samples were stored either at room temperature (22° C.) or at 4° C., and mean platelet component values were obtained at the designated time points using the ADVIA® 2120 system.
# (§3) Blood from healthy controls were also collected into Vacutainer® K3E 4.5 mL K3EDTA sample collection tubes (Cat. No. 367654, Becton, Dickinson and Company, Franklin Lakes, N.J.) and combined with the remaining STABILE-1 reagents (citrate-phosphate-dextrose, wortmanin, tyrphostin) to yield the prescribed concentrations. […] Mean platelet component and mean platelet volume were assessed at 30 min, 6 hr, and 24 hr following blood collection/initial combination with storage reagents using the ADVIA® 2120 system (Bayer AG, Leverkusen, Germany). Flow cytometry techniques were used to identify platelet activation proteins, and the impact of these strategies on ultrastructural morphology of platelets was morphometrically evaluated using electron microscopy (EM). The values obtained at t=0+30 (i.e., 30 min after blood collection and the initial combination with the storage reagents) were designated as baseline values to which values observed at t=6 hr and t=24 hr were compared.
# (§4) Blood from healthy controls were carefully collected, and mean platelet component was assessed upon combination of blood with the respective storage reagents, using the ADVIA® 2120 system (Bayer AG, Leverkusen, Germany), and again at 1 hr, 3 hr, 6 hr, and 24 hr following the initial combination with storage reagents. All samples were stored at room temperature (22° C.).
# as §4, with “Experiments were conducted in order to assess the effect of varying the concentration of the citrate-phosphate-dextrose component in the STABILE-1 storage medium on the mean platelet component. Blood” for “Blood”
# platelets [2] = assay: morphometric evaluation of α-granules per platelet and platelet morphology, electron microscopy
# Method: as §3
# platelets [3] = assay: morphometric evaluation of dense bodies per platelet, electron microscopy whole mounts; conditions: * = statistically significant at the 95% confidence level
# Excerpt: In accordance with published methods, platelet whole mounts were viewed “by transparence”, i.e., while supported on polyvinal formal resin, and dense bodies were counted.
# The plot depicts mean values with 95% LSD intervals.
# platelets [4] = conditions: for MPV, increase in % vs 30 min baseline: n = 8; for mean platelet volume (MPV), Average: Table 4, stored at 22° C.
# Method: as §1
# as §2, with “volume was assessed” for “values were obtained”
# as §3, with “(EM).” for “(EM). The values obtained at t=0+30 (i.e., 30 min after blood collection and the initial combination with the storage reagents) were designated as baseline values to which values observed at t=6 hr and t=24 hr were compared.”
# [5] = tested on: P-selectin (also known as CD62P); assay: P-selectin expression of stored platelets, flow cytometry; conditions: 22° C., n = 8
# Method: as §3
smiles,measurement,setting,value
"O=C(O)CN(CCN(CC(=O)O)CC(=O)O)CC(=O)O [EDTA, Ethylenediaminetetraacetic acid]",MPC,"platelets [1]; 30 min (baseline), 22° C., n = 8",259 ± 6.6 g/L
same,"MPC, reduction in % vs 30 min baseline","platelets [1]; 6 hours, 22° C., n = 8",−9%
same,"MPC, reduction in % vs 30 min baseline","platelets [1]; 24 hours, 22° C., n = 8",−21%
same,"mean platelet component (MPC), Average","platelets [1]; 0 min, n 12",260.83
same,"mean platelet component (MPC), Average","platelets [1]; 30 min, n 15",258.07
same,"mean platelet component (MPC), Average","platelets [1]; 1 h, n 15",252.00
same,"mean platelet component (MPC), Average","platelets [1]; 3 h, n 15",239.07
same,"mean platelet component (MPC), Average","platelets [1]; 6 h, n 15",229.87
same,"mean platelet component (MPC), Average","platelets [1]; 24 h, n 15",201.07
same,mean platelet component,"platelets [1]; Table 8, 0, stored at room temperature (22° C.)",278
same,mean platelet component,"platelets [1]; Table 8, 1 hr, stored at room temperature (22° C.)",273
same,mean platelet component,"platelets [1]; Table 8, 3 hr, stored at room temperature (22° C.)",265
same,mean platelet component,"platelets [1]; Table 8, 6 hr, stored at room temperature (22° C.)",268
same,mean platelet component,"platelets [1]; Table 8, 24 hr, stored at room temperature (22° C.)",233
same,mean platelet component,"platelets [1]; Table 10, 0, stored at room temperature (22° C.)",258
same,mean platelet component,"platelets [1]; Table 10, 1 hr, stored at room temperature (22° C.)",247
same,mean platelet component,"platelets [1]; Table 10, 3 hr, stored at room temperature (22° C.)",235
same,mean platelet component,"platelets [1]; Table 10, 6 hr, stored at room temperature (22° C.)",225
same,mean platelet component,"platelets [1]; Table 10, 24 hr, stored at room temperature (22° C.)",190
same,mean platelet component,"platelets [1]; Table 11, 0, stored at room temperature (22° C.)",288
same,mean platelet component,"platelets [1]; Table 11, 1 hr, stored at room temperature (22° C.)",282
same,mean platelet component,"platelets [1]; Table 11, 3 hr, stored at room temperature (22° C.)",271
same,mean platelet component,"platelets [1]; Table 11, 6 hr, stored at room temperature (22° C.)",269
same,mean platelet component,"platelets [1]; Table 11, 24 hr, stored at room temperature (22° C.)",227
same,decrease in the mean platelet component,"platelets [1]; six hours after initial combination (t=0), storage at 22° C., Tables 1 and 2",~12%
same,decrease of MPC values,"platelets [1]; t=5.5 hr after baseline measurements, room temperature / 22° C.",9%
same,number of α-granules per platelet section,platelets [2]; 6 h,6.4±2.3
same,number of α-granules per platelet section,platelets [2]; 24 h,3.5±1.4
same,number of α-granules per platelet as compared with t=0,"platelets [2]; FIG. 4A, six hours of storage, 22° C.",statistical reduction
same,number of α-granules per platelet section,platelets [2]; baseline,12.3±6.07
same,"Difference, mean number of dense bodies per platelet",platelets [3]; Contrast EDTA 0 hr vs. stored 1 hr,−1.26*
same,"Difference, mean number of dense bodies per platelet",platelets [3]; Contrast EDTA 0 hr vs. stored 24 hr,2.1*
same,"Difference, mean number of dense bodies per platelet",platelets [3]; Contrast EDTA 1 hr vs. EDTA 6 hr,1.9*
same,MPV,platelets [4],8.3 ± 0.2 fL
same,increase of MPV values,"platelets [4]; 5.5 hours after baseline, 22° C.",10.2%
same,"MPV, increase in % vs 30 min baseline","platelets [4]; 6 hours, 22° C.",+10.2%
same,"MPV, increase in % vs 30 min baseline","platelets [4]; 24 hours, 22° C.",+23%
same,"mean platelet volume (MPV), Average","platelets [4]; 0 min, n 12",8.36
same,"mean platelet volume (MPV), Average","platelets [4]; 30 min, n 15",8.41
same,"mean platelet volume (MPV), Average","platelets [4]; 1 h, n 15",8.65
same,"mean platelet volume (MPV), Average","platelets [4]; 3 h, n 15",9.22
same,"mean platelet volume (MPV), Average","platelets [4]; 6 h, n 15",9.53
same,"mean platelet volume (MPV), Average","platelets [4]; 24 h, n 15",10.63
same,increase in the mean platelet volume,"platelets [4]; six hours after initial combination (t=0), storage at 22° C., Tables 4 and 5",~12%
same,"P-selectin, % of positive platelets",[5]; 30 min (baseline),2.1%
same,"P-selectin, % of positive platelets",[5]; 6 hours,13.9%
same,"P-selectin, % of positive platelets",[5]; 24 hours,40.8%
